Measured values taken from publication PMC7093416, “Selective USP7 inhibition elicits cancer cell killing through a p53-dependent mechanism” (Scientific Reports, 2020).

Tested on: panel of 484 cancer cell lines
Assay: PRISM cancer cell line profiling, 5 days
Assay type: cell-based
Set-up: AUC: unit not given beside the values
Protocol: Cancer cell line profiling was performed using the Broad’s PRISM platform. Cell treatment and data analysis were performed as described in Yu et al[42]. Raw Luminex signal was converted to AUC values for each cell line as described. The resulting AUC profile for each compound was modeled against DepMap using the limma package in R[71]. Because hotspot mutation analysis was performed against DepMap, TP53 annotations in Fig. 6c,d are directly from DepMap.

CN1CCN(CCC(=O)Nc2ccc3c(=O)n(CC4(O)CCN(C(=O)[C@H](CCCNC(=O)c5ccc6c(Cl)c7c(nc6c5)CCCC7)Cc5ccccc5)CC4)cnc3c2)CC1 [XL177B]
AUC (MFE319_ENDOMETRIUM): 1.072 | AUC (MG63_BONE): 1.289 | AUC (MHHES1_BONE): 1.021 | AUC (MIAPACA2_PANCREAS): 1.024 | AUC (MKN1_STOMACH): 1.134 | AUC (MKN7_STOMACH): 0.9188 | AUC (MKN45_STOMACH): 0.937 | AUC (MKN74_STOMACH): 1.1384 | AUC (MON_SOFT_TISSUE): 0.868 | AUC (MPP89_PLEURA): 1.104 | AUC (MSTO211H_PLEURA): 1.149 | AUC (NB1_AUTONOMIC_GANGLIA): 0.9815 | AUC (NCIH23_LUNG): 1.159 | AUC (NCIH28_PLEURA): 1.1 | AUC (NCIH226_LUNG): 1 | AUC (NCIH292_LUNG): 1.194 | AUC (NCIH322_LUNG): 1.142 | AUC (NCIH358_LUNG): 0.8695 | AUC (NCIH446_LUNG): 1.097 | AUC (NCIH460_LUNG): 1.182 | AUC (NCIH520_LUNG): 1.115 | AUC (NCIH522_LUNG): 1.144 | AUC (NCIH596_LUNG): 1.0995 | AUC (NCIH650_LUNG): 0.9625 | AUC (NCIH661_LUNG): 1.097 | AUC (NCIH727_LUNG): 0.8802 | AUC (NCIH747_LARGE_INTESTINE): 1.192 | AUC (NCIH838_LUNG): 1.102 | AUC (NCIH841_LUNG): 0.9191 | AUC (NCIH1048_LUNG): 1.221 | AUC (NCIH1299_LUNG): 1.132 | AUC (NCIH1339_LUNG): 1.0827 | AUC (NCIH1355_LUNG): 1 | AUC (NCIH1373_LUNG): 1 | AUC (NCIH1435_LUNG): 1.103 | AUC (NCIH1437_LUNG): 1.1299 | AUC (NCIH1563_LUNG): 1.106 | AUC (NCIH1568_LUNG): 1.0425 | AUC (NCIH1573_LUNG): 1.2267 | AUC (NCIH1581_LUNG): 1 | AUC (NCIH1623_LUNG): 0.9367 | AUC (NCIH1648_LUNG): 0.9797 | AUC (NCIH1650_LUNG): 1 | AUC (NCIH1651_LUNG): 1.093 | AUC (NCIH1693_LUNG): 0.9899 | AUC (NCIH1703_LUNG): 1.014 | AUC (NCIH1792_LUNG): 1.039 | AUC (NCIH1793_LUNG): 1.204 | AUC (NCIH1838_LUNG): 1.05 | AUC (NCIH1915_LUNG): 1.114 | AUC (NCIH1944_LUNG): 1.069 | AUC (NCIH1975_LUNG): 0.971 | AUC (NCIH2009_LUNG): 1.115 | AUC (NCIH2023_LUNG): 1.241 | AUC (NCIH2030_LUNG): 1.104 | AUC (NCIH2052_PLEURA): 1.077 | AUC (NCIH2077_LUNG): 1.134 | AUC (NCIH2087_LUNG): 1.226 | AUC (NCIH2110_LUNG): 1.058 | AUC (NCIH2122_LUNG): 0.9408 | AUC (NCIH2126_LUNG): 1.236 | AUC (NCIH2170_LUNG): 1.101 | AUC (NCIH2172_LUNG): 1.092 | AUC (NCIH2228_LUNG): 1.118 | AUC (NCIH2347_LUNG): 1.188 | AUC (NCIH2444_LUNG): 1.192 | AUC (NCIH2452_PLEURA): 1.126 | AUC (NCIN87_STOMACH): 1.49 | AUC (NUGC3_STOMACH): 1.06 | AUC (NUGC4_STOMACH): 0.9885 | AUC (OAW42_OVARY): 1.241 | AUC (OC314_OVARY): 1.074 | AUC (OC316_OVARY): 1.04 | AUC (OE19_OESOPHAGUS): 1.175 | AUC (OE21_OESOPHAGUS): 1.031 | AUC (OE33_OESOPHAGUS): 1.151 | AUC (ONCODG1_OVARY): 0.9433 | AUC (ONS76_CENTRAL_NERVOUS_SYSTEM): 0.9415 | AUC (OSRC2_KIDNEY): 0.9859 | AUC (OUMS23_LARGE_INTESTINE): 0.9052 | AUC (OV56_OVARY): 1.208 | AUC (OVCAR8_OVARY): 0.9939 | AUC (OVISE_OVARY): 0.9359 | AUC (OVK18_OVARY): 1.044 | AUC (OVSAHO_OVARY): 1.01 | AUC (OVTOKO_OVARY): 1.081 | AUC (PANC1_PANCREAS): 0.9949 | AUC (PANC0203_PANCREAS): 0.9842 | AUC (PANC0327_PANCREAS): 1.28 | AUC (PANC0403_PANCREAS): 1.185 | AUC (PANC0813_PANCREAS): 1.0849 | AUC (PANC1005_PANCREAS): 1.231 | AUC (PATU8902_PANCREAS): 1.2352 | AUC (PATU8988S_PANCREAS): 1.1933 | AUC (PATU8988T_PANCREAS): 1.0752 | AUC (PC3_PROSTATE): 0.9113 | AUC (PC14_LUNG): 1.023 | AUC (PECAPJ15_UPPER_AERODIGESTIVE_TRACT): 0.9342 | AUC (PECAPJ41CLONED2_UPPER_AERODIGESTIVE_TRACT): 0.9621 | AUC (PECAPJ49_UPPER_AERODIGESTIVE_TRACT): 1.067 | AUC (PK1_PANCREAS): 1.024 | AUC (PK45H_PANCREAS): 1.109 | AUC (PK59_PANCREAS): 1.206 | AUC (PLCPRF5_LIVER): 1.091 | AUC (PSN1_PANCREAS): 1.221 | AUC (QGP1_PANCREAS): 0.967 | AUC (RCC10RGB_KIDNEY): 1.114 | AUC (RCM1_LARGE_INTESTINE): 1.243 | AUC (RD_SOFT_TISSUE): 1.111 | AUC (RERFLCAD1_LUNG): 1.059 | AUC (RERFLCAD2_LUNG): 1.0662 | AUC (RERFLCAI_LUNG): 0.9008 | AUC (RERFLCKJ_LUNG): 0.9276 | AUC (RERFLCMS_LUNG): 1.058 | AUC (RH30_SOFT_TISSUE): 1.104 | AUC (RKN_SOFT_TISSUE): 0.8189 | AUC (RKO_LARGE_INTESTINE): 0.9705 | AUC (RL952_ENDOMETRIUM): 1.086 | AUC (RMGI_OVARY): 1.148 | AUC (RMUGS_OVARY): 0.9927 | AUC (RT4_URINARY_TRACT): 1.661
